Laboratory results taken from the supplement of paper PMC10307832.

What was measured:
Experiment in all cases: relative viability (nuclei count vs DMSO), 5 days (fraction); higher = more cells survive
[1] = test system: PC-3 [JPC-3]
Summary of the method: (§1)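 Dosing by pin tool came one day after lung cancer cell lines were seeded in 1536-well plates, using either one drug or a fixed anchor-drug dose plus five library-drug doses (not always all listed) in √10 steps. After 5 days, nuclei were counted on 4× images. Relative viability is treated-well nuclei count divided by vehicle-well nuclei count, and values are medians of duplicate plates.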

[2] = test system: PC-14
Summary of the method: as §1

[3] = test system: NCI-H1666
Summary of the method: as §1

[4] = test system: NCI-H460
Summary of the method: as §1

[5] = test system: NCI-H2347
Summary of the method: as §1

[6] = test system: SW 1573
Summary of the method: as §1

[7] = test system: NCI-H2126
Summary of the method: as §1

[8] = test system: NCI-H1975
Summary of the method: as §1

[9] = test system: NCI-H647
Summary of the method: as §1

[10] = test system: LCLC-97TM1
Summary of the method: as §1

[11] = test system: SK-LU-1
Summary of the method: as §1

[12] = test system: NCI-H2170
Summary of the method: as §1

[13] = test system: NCI-H1793
Summary of the method: as §1

[14] = test system: NCI-H2009
Summary of the method: as §1

[15] = test system: EMC-BAC-2
Summary of the method: as §1

[16] = test system: ABC-1
Summary of the method: as §1

[17] = test system: NCI-H1755
Summary of the method: as §1

[18] = test system: NCI-H1355
Summary of the method: as §1

[19] = test system: NCI-H1993
Summary of the method: as §1

[20] = test system: NCI-H520
Summary of the method: as §1

[21] = test system: NCI-H727
Summary of the method: as §1

[22] = test system: NCI-H441
Summary of the method: as §1

[23] = test system: NCI-H1944
Summary of the method: as §1

O=c1[nH]c2ccccc2n1C1CCN(CCCC(c2ccc(F)cc2)c2ccc(F)cc2)CC1 [Pimozide] + Nc1ncn([C@H]2C[C@H](O)[C@@H](CO)O2)c(=O)n1 [Decitabine] (partner 2 µM)
relative viability ([1]; first compound 0.253 µM): 0.838 | relative viability ([1]; first compound 0.8 µM): 0.823 | relative viability ([1]; first compound 2.53 µM): 0.904 | relative viability ([1]; first compound 8 µM): 0.854 | relative viability ([2]; first compound 0.253 µM): 0.221 | relative viability ([2]; first compound 0.8 µM): 0.228 | relative viability ([2]; first compound 2.53 µM): 0.144 | relative viability ([2]; first compound 8 µM): 0.231 | relative viability ([3]; first compound 0.08 µM): 0.688 | relative viability ([3]; first compound 0.253 µM): 0.738 | relative viability ([3]; first compound 0.8 µM): 0.696 | relative viability ([3]; first compound 2.53 µM): 0.695 | relative viability ([3]; first compound 8 µM): 0.784 | relative viability ([4]; first compound 0.08 µM): 0.553 | relative viability ([4]; first compound 0.253 µM): 0.494 | relative viability ([4]; first compound 0.8 µM): 0.462 | relative viability ([4]; first compound 2.53 µM): 0.521 | relative viability ([4]; first compound 8 µM): 0.45 | relative viability ([5]; first compound 0.08 µM): 0.651 | relative viability ([5]; first compound 0.253 µM): 0.589 | relative viability ([5]; first compound 0.8 µM): 0.574 | relative viability ([5]; first compound 2.53 µM): 0.594 | relative viability ([5]; first compound 8 µM): 0.559 | relative viability ([6]; first compound 0.08 µM): 0.555 | relative viability ([6]; first compound 0.253 µM): 0.52 | relative viability ([6]; first compound 0.8 µM): 0.499 | relative viability ([6]; first compound 2.53 µM): 0.371 | relative viability ([6]; first compound 8 µM): 0.384 | relative viability ([7]; first compound 0.08 µM): 0.613 | relative viability ([7]; first compound 0.253 µM): 0.576 | relative viability ([7]; first compound 0.8 µM): 0.549 | relative viability ([7]; first compound 2.53 µM): 0.557 | relative viability ([7]; first compound 8 µM): 0.62 | relative viability ([8]; first compound 0.08 µM): 0.347 | relative viability ([8]; first compound 0.253 µM): 0.387 | relative viability ([8]; first compound 0.8 µM): 0.391 | relative viability ([8]; first compound 2.53 µM): 0.368 | relative viability ([8]; first compound 8 µM): 0.419 | relative viability ([9]; first compound 0.08 µM): 0.37 | relative viability ([9]; first compound 0.253 µM): 0.363 | relative viability ([9]; first compound 0.8 µM): 0.392 | relative viability ([9]; first compound 2.53 µM): 0.442 | relative viability ([9]; first compound 8 µM): 0.508 | relative viability ([10]; first compound 0.08 µM): 0.229 | relative viability ([10]; first compound 0.253 µM): 0.245 | relative viability ([10]; first compound 0.8 µM): 0.183 | relative viability ([10]; first compound 2.53 µM): 0.221 | relative viability ([10]; first compound 8 µM): 0.228 | relative viability ([11]; first compound 0.08 µM): 0.631 | relative viability ([11]; first compound 0.253 µM): 0.741 | relative viability ([11]; first compound 0.8 µM): 0.6 | relative viability ([11]; first compound 2.53 µM): 0.583 | relative viability ([11]; first compound 8 µM): 0.49 | relative viability ([12]; first compound 0.08 µM): 0.43 | relative viability ([12]; first compound 0.253 µM): 0.453 | relative viability ([12]; first compound 0.8 µM): 0.432 | relative viability ([12]; first compound 2.53 µM): 0.477 | relative viability ([12]; first compound 8 µM): 0.454 | relative viability ([13]; first compound 0.08 µM): 0.501 | relative viability ([13]; first compound 0.253 µM): 0.489 | relative viability ([13]; first compound 0.8 µM): 0.516 | relative viability ([13]; first compound 2.53 µM): 0.556 | relative viability ([13]; first compound 8 µM): 0.58 | relative viability ([14]; first compound 0.08 µM): 0.442 | relative viability ([14]; first compound 0.253 µM): 0.374 | relative viability ([14]; first compound 0.8 µM): 0.327 | relative viability ([14]; first compound 2.53 µM): 0.436 | relative viability ([14]; first compound 8 µM): 0.412 | relative viability ([15]; first compound 0.08 µM): 0.956 | relative viability ([15]; first compound 0.253 µM): 0.918 | relative viability ([15]; first compound 0.8 µM): 0.911 | relative viability ([15]; first compound 2.53 µM): 0.953 | relative viability ([15]; first compound 8 µM): 0.983 | relative viability ([16]; first compound 0.08 µM): 1.18 | relative viability ([16]; first compound 0.253 µM): 0.831 | relative viability ([16]; first compound 0.8 µM): 1.22 | relative viability ([16]; first compound 2.53 µM): 1.08 | relative viability ([16]; first compound 8 µM): 1.02 | relative viability ([17]; first compound 0.08 µM): 0.675 | relative viability ([17]; first compound 0.253 µM): 0.659 | relative viability ([17]; first compound 0.8 µM): 0.624 | relative viability ([17]; first compound 2.53 µM): 0.684 | relative viability ([17]; first compound 8 µM): 0.69 | relative viability ([18]; first compound 0.08 µM): 0.345 | relative viability ([18]; first compound 0.253 µM): 0.332 | relative viability ([18]; first compound 0.8 µM): 0.339 | relative viability ([18]; first compound 2.53 µM): 0.339 | relative viability ([18]; first compound 8 µM): 0.337 | relative viability ([19]; first compound 0.08 µM): 0.561 | relative viability ([19]; first compound 0.253 µM): 0.56 | relative viability ([19]; first compound 0.8 µM): 0.566 | relative viability ([19]; first compound 2.53 µM): 0.556 | relative viability ([19]; first compound 8 µM): 0.642 | relative viability ([20]; first compound 0.08 µM): 0.455 | relative viability ([20]; first compound 0.253 µM): 0.428 | relative viability ([20]; first compound 0.8 µM): 0.453 | relative viability ([20]; first compound 2.53 µM): 0.519 | relative viability ([20]; first compound 8 µM): 0.613 | relative viability ([21]; first compound 0.08 µM): 0.834 | relative viability ([21]; first compound 0.253 µM): 0.588 | relative viability ([21]; first compound 0.8 µM): 0.933 | relative viability ([21]; first compound 2.53 µM): 0.98 | relative viability ([21]; first compound 8 µM): 0.856 | relative viability ([22]; first compound 0.08 µM): 0.208 | relative viability ([22]; first compound 0.253 µM): 0.255 | relative viability ([22]; first compound 0.8 µM): 0.234 | relative viability ([22]; first compound 2.53 µM): 0.236 | relative viability ([22]; first compound 8 µM): 0.241 | relative viability ([23]; first compound 0.08 µM): 0.398 | relative viability ([23]; first compound 2.53 µM): 0.436 | relative viability ([23]; first compound 8 µM): 0.393
